Legend:
Assay in all cases: relative viability (nuclei count vs DMSO), 5 days (fraction); higher = more cells survive
NCI-H727 = test system: NCI-H727
In short: (§1)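 A single step with final 0.05% Triton X-100, 1% formaldehyde and 1 ug/ml Hoechst fixed the cells and stained nuclei 5 days after treatment. Lung cancer cell lines in 1536-well plates had been treated by pin tool the day after seeding with one drug alone or a fixed anchor-drug dose plus five library-drug doses (not always all listed) in √10 steps, and nuclei were counted on 4× images. Relative viability is the ratio of nuclei in treated wells to nuclei in vehicle wells, taken as the median of duplicate plates.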

COR-L 105 = test system: COR-L 105
In short: as §1

HOP-62 = test system: HOP-62
In short: as §1

NCI-H1355 = test system: NCI-H1355
In short: as §1

HCC-827 = test system: HCC-827
In short: as §1

NCI-H1755 = test system: NCI-H1755
In short: as §1

SW 1573 = test system: SW 1573
In short: as §1

HCC-366 = test system: HCC-366
In short: as §1

HARA = test system: HARA
In short: as §1

NCI-H23 = test system: NCI-H23
In short: as §1

NCI-H1975 = test system: NCI-H1975
In short: as §1

SK-LU-1 = test system: SK-LU-1
In short: as §1

NCI-H522 = test system: NCI-H522
In short: as §1

NCI-H1437 = test system: NCI-H1437
In short: as §1

NCI-H1915 = test system: NCI-H1915
In short: as §1

LCLC-103H = test system: LCLC-103H
In short: as §1

A-427 = test system: A-427
In short: as §1

NCI-H460 = test system: NCI-H460
In short: as §1

EMC-BAC-2 = test system: EMC-BAC-2
In short: as §1

NCI-H1792 = test system: NCI-H1792
In short: as §1

NCI-H2009 = test system: NCI-H2009
In short: as §1

NCI-H1395 = test system: NCI-H1395
In short: as §1

Molecule `CC(C)Oc1cc(Nc2nc(N[C@@H](C)c3ccc(F)cn3)ncc2Cl)n[nH]1` [AZ23] + Nc1ncn([C@H]2C[C@H](O)[C@@H](CO)O2)c(=O)n1 [Decitabine] (partner 2 µM) has a relative viability (NCI-H727; first compound 0.01 µM) of 0.956, a relative viability (NCI-H727; first compound 0.03162 µM) of 0.945 and a relative viability (NCI-H727; first compound 0.3162 µM) of 0.822. It also gave a relative viability (COR-L 105; first compound 0.01 µM) of 0.547, a relative viability (COR-L 105; first compound 0.03162 µM) of 0.65 and a relative viability (COR-L 105; first compound 0.3162 µM) of 0.708. The relative viability (HOP-62; first compound 0.01 µM) was 0.282, the relative viability (HOP-62; first compound 0.03162 µM) was 0.21 and the relative viability (HOP-62; first compound 0.3162 µM) was 0.195. For the same molecule, the relative viability (NCI-H1355; first compound 0.01 µM) was 0.377, the relative viability (NCI-H1355; first compound 0.03162 µM) was 0.366 and the relative viability (NCI-H1355; first compound 0.3162 µM) was 0.333. For the same molecule, the relative viability (HCC-827; first compound 0.01 µM) was 0.361, the relative viability (HCC-827; first compound 0.03162 µM) was 0.316 and the relative viability (HCC-827; first compound 0.3162 µM) was 0.323. The relative viability (NCI-H1755; first compound 0.01 µM) was 0.844, the relative viability (NCI-H1755; first compound 0.03162 µM) was 0.705 and the relative viability (NCI-H1755; first compound 0.3162 µM) was 0.697. It also gave a relative viability (SW 1573; first compound 0.01 µM) of 0.699, a relative viability (SW 1573; first compound 0.03162 µM) of 0.553 and a relative viability (SW 1573; first compound 0.3162 µM) of 0.612. It also gave a relative viability (HCC-366; first compound 0.01 µM) of 0.319, a relative viability (HCC-366; first compound 0.03162 µM) of 0.373 and a relative viability (HCC-366; first compound 0.3162 µM) of 0.333. The relative viability (HARA; first compound 0.01 µM) was 0.621, the relative viability (HARA; first compound 0.03162 µM) was 0.581 and the relative viability (HARA; first compound 0.3162 µM) was 0.504. It also gave a relative viability (NCI-H23; first compound 0.03162 µM) of 0.307, a relative viability (NCI-H23; first compound 0.3162 µM) of 0.274 and a relative viability (NCI-H1975; first compound 0.01 µM) of 0.409. The relative viability (NCI-H1975; first compound 0.03162 µM) was 0.451, the relative viability (NCI-H1975; first compound 0.3162 µM) was 0.414 and the relative viability (SK-LU-1; first compound 0.03162 µM) was 0.651. The relative viability (SK-LU-1; first compound 0.3162 µM) was 0.643, the relative viability (NCI-H522; first compound 0.01 µM) was 0.701 and the relative viability (NCI-H522; first compound 0.03162 µM) was 0.736. For the same molecule, the relative viability (NCI-H522; first compound 0.3162 µM) was 0.679, the relative viability (NCI-H1437; first compound 0.01 µM) was 0.57 and the relative viability (NCI-H1437; first compound 0.03162 µM) was 0.552. It also gave a relative viability (NCI-H1437; first compound 0.3162 µM) of 0.56, a relative viability (NCI-H1915; first compound 0.01 µM) of 0.293 and a relative viability (NCI-H1915; first compound 0.03162 µM) of 0.272. It also gave a relative viability (NCI-H1915; first compound 0.3162 µM) of 0.269, a relative viability (LCLC-103H; first compound 0.01 µM) of 0.765 and a relative viability (LCLC-103H; first compound 0.03162 µM) of 0.691. It also gave a relative viability (LCLC-103H; first compound 0.3162 µM) of 0.743, a relative viability (A-427; first compound 0.01 µM) of 0.508 and a relative viability (A-427; first compound 0.03162 µM) of 0.558. It also gave a relative viability (A-427; first compound 0.3162 µM) of 0.591, a relative viability (NCI-H460; first compound 0.01 µM) of 0.489 and a relative viability (NCI-H460; first compound 0.03162 µM) of 0.514. For the same molecule, the relative viability (NCI-H460; first compound 0.3162 µM) was 0.55, the relative viability (EMC-BAC-2; first compound 0.01 µM) was 0.966 and the relative viability (EMC-BAC-2; first compound 0.03162 µM) was 0.998. The relative viability (EMC-BAC-2; first compound 0.3162 µM) was 0.949, the relative viability (NCI-H1792; first compound 0.01 µM) was 0.462 and the relative viability (NCI-H1792; first compound 0.03162 µM) was 0.549. For the same molecule, the relative viability (NCI-H1792; first compound 0.3162 µM) was 0.48, the relative viability (NCI-H2009; first compound 0.01 µM) was 0.406 and the relative viability (NCI-H2009; first compound 0.03162 µM) was 0.356. For the same molecule, the relative viability (NCI-H2009; first compound 0.3162 µM) was 0.396, the relative viability (NCI-H1395; first compound 0.03162 µM) was 0.713 and the relative viability (NCI-H1395; first compound 0.3162 µM) was 0.704.

Source: the supplement of paper PMC10307832
